Data set [1] in a line: Blood/plasma ratio and free fraction (PBTK input parameters). Type of data set: in vitro ADME.
In the next data set the target is T1, human α3β4 nAChR (Homo sapiens, UniProt P30926+P32297).
T1 construct: expressed in transfected cells; host or cells: Xenopus laevis oocytes, mRNA injection, 0.33 ng α3 and 3.33 ng β4
Briefly: Two-electrode voltage-clamp recordings, Xenopus laevis oocytes expressing human α3β4 nAChR. The data set is classed as cell-based. A general note: Two-electrode voltage clamp holds a large cell at a set potential and records current.

In a further data set the target is T2, human α7 nAChR (Homo sapiens, UniProt P36544).
T2 construct: expressed in transfected cells; host or cells: Xenopus laevis oocytes, injection of 30 ng mRNA (pCDNA3.1, T7 transcript)
Briefly: Two-electrode voltage-clamp recordings, Xenopus laevis oocytes expressing human α7 nAChR. The data set is classed as cell-based.

Another data set concerns the target T3, human α4β4 nAChR (Homo sapiens, UniProt P30926+P43681).
T3 construct: expressed in transfected cells; host or cells: Xenopus laevis oocytes, mRNA injection, 3.33 ng α4 and 3.33 ng β4
Briefly: Two-electrode voltage-clamp recordings, Xenopus laevis oocytes expressing human α4β4 nAChR. Type of data set: cell-based. The text has this: The human α7 nAChR subunit was cloned in the pCDNA3.1 vector.
For the generation of the mRNA for injection, the plasmid DNAs of α3, α4, β2, and β4 were linearized with the NotI restriction endonuclease (New England Biolabs) and the plasmid DNA of α7 was linearized with the XbaI restriction endonuclease (New England Biolabs). The mRNAs of α3, α4, β2, and β4 were generated by in vitro transcription using the mMESSAGE mMACHINE SP6 Transcription Kit (Invitrogen). For the generation of α7 mRNA, the mMESSAGE mMACHINE T7 Transcription Kit (Invitrogen) was used. For the separation of the DNA and mRNA, a phenol–chloroform extraction (Chomczynski and Sacchi [2006]) was performed. The mRNA was then obtained by ethanol precipitation from the aqueous phase; for quantification, the BioPhotometer (Eppendorf) was used.
The recordings of human α7, α3β4, α4β2, and α4β4 nAChRs expressed in Xenopus laevis oocytes (EcoCyte Bioscience) were performed in two-electrode voltage-clamp mode using the Roboocyte2 system and the corresponding software (version 1.4.1; Multi Channel Systems MCS). Prior to the recordings, the oocytes were maintained at 19 °C in modified Barth’s solution containing [mM]: 88 NaCl, 1 KCl, 0.33 Ca(NO3)2, 0.82 MgSO4, 2.4 NaHCO3, 0.41 CaCl2, 5 Tris, 100 U/ml penicillin, 100 µg/ml streptomycin, pH 7.4.
To express human α7 nAChR, we injected 50 nl of mRNA solution (30 ng mRNA) per oocyte, using the Roboinject and the corresponding software (version 1.2.1; Multi Channel Systems MCS). […]
The baseline correction of voltage-clamp oocyte recordings was performed with the Roboocyte2 + software (version 1.4.3; Multi Channel Systems MCS, Germany). The maximal current influx and further analysis were executed in scripts written in R. In the antagonist experiments with oocytes, the maximal inward current was determined for the last response of each period (control, three antagonist concentrations, and washout).

Setting [2] is: from curve-fitted concentration–response data.

T2 sequence (P36544 23-502): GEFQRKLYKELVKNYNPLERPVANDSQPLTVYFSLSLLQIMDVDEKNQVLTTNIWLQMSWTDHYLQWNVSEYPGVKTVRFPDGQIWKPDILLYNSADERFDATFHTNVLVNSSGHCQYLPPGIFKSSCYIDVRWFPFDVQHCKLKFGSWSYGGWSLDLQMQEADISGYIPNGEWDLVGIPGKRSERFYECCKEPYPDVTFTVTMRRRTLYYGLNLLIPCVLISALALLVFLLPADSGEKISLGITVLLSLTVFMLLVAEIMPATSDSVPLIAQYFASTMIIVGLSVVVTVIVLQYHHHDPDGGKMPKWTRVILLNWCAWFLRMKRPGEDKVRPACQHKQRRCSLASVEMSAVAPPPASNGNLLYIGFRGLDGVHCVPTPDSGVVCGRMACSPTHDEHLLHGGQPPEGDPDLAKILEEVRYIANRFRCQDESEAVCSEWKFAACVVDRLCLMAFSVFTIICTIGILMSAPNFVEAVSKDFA
T1 sequence (P32297 32-505): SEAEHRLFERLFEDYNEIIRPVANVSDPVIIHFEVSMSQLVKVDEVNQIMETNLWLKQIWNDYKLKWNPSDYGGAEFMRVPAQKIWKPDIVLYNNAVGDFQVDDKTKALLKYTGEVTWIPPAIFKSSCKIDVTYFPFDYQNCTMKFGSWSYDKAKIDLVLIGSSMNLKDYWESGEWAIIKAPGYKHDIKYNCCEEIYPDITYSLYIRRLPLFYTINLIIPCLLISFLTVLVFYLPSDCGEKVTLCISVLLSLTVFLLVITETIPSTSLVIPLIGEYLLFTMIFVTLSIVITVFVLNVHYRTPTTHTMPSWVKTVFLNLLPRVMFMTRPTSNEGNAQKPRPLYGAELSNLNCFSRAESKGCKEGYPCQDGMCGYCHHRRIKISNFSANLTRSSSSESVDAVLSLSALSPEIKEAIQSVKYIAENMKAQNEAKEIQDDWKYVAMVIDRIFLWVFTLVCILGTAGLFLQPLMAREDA
T1 sequence (P30926 22-498): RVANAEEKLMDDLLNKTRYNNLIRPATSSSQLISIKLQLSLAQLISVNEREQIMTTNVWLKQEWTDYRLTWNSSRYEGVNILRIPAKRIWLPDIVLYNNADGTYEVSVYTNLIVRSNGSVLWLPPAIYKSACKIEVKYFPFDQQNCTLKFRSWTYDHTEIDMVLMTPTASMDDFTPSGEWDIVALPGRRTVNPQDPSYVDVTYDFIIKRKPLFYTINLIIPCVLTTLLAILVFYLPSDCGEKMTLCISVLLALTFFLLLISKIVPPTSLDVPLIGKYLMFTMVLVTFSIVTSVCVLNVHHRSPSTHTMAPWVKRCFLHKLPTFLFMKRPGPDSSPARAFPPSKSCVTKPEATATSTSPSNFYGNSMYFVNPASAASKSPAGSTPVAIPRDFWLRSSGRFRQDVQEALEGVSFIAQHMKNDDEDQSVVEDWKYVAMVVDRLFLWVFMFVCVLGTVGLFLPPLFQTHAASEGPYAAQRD
T3 sequence (P43681 27-627): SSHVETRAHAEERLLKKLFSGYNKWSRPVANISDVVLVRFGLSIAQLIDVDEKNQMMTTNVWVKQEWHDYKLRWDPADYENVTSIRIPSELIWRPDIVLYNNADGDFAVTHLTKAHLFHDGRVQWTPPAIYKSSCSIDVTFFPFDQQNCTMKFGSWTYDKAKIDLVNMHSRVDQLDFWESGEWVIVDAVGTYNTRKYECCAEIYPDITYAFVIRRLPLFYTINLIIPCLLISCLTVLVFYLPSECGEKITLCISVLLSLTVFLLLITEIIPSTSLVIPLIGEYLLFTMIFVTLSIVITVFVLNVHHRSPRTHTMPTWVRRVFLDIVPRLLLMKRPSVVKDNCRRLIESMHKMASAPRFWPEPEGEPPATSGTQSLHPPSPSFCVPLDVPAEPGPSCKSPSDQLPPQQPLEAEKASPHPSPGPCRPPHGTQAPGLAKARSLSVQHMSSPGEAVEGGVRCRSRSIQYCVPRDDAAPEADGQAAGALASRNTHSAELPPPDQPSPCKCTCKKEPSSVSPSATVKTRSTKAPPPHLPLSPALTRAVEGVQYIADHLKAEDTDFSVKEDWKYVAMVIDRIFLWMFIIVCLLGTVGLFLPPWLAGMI
T3 sequence (P30926 22-498): as the sequence (P30926 22-498) above

Take `NC1=NCCN1Cc1ccc(Cl)nc1` [DN-IMI, desnitro-imidacloprid]: the blood plasma ratio in data set [1] (blood and plasma, read-out: Blood/plasma ration [B/P]) turned out to be 0.759. For the same compound, the fraction unbound in data set [1] (plasma, read-out: Free fraction [fu]) is 0.841. Further, the EC50 on human α3β4 nAChR is 12.6 µM; at human α7 nAChR, 31.6 µM; on human α4β4 nAChR (read-out: relative pEC50 (inward current amplitude) (converted)) it was 3.16 µM. Moreover, the “absolute EC25” value at human α3β4 nAChR (setting [2]) turned out to be 5.2 µM; at human α7 nAChR (setting [2]), 7.6 µM. Besides, the figures for the estimated maximum on human α3β4 nAChR (normalized to nicotine (1 mM)), on human α7 nAChR (normalized to nicotine (1 mM)) and at human α4β4 nAChR (normalized to nicotine (100 µM)) were ~ 0.65, ~ 0.81 and ~ 0.97, respectively. The “estimated maximum, % of the maximal response to nicotine” value on human α7 nAChR is given as ~ 81%. Further, the “higher potency of DN-IMI than nicotine” value on human α7 nAChR (EC25 comparison on the receptors other than α4β2 (HS): α7 and α3β4) is “about 0.6 log-steps”. Besides, the Emax at human α7 nAChR (read-out: estimated maximum, % of the maximal response to nicotine) was 83%.

The values are drawn from PMC8536575, “Acute effects of the imidacloprid metabolite desnitro-imidacloprid on human nACh receptors relevant for neuronal signaling” (Archives of Toxicology, 2021).
